In PubChem BioAssay AID290 (DTP/NCI, 2004):
“And” between values parts separate entries of the source, which are not always exact repeats. Identical values can stand only once. Results filed as inconclusive are left out.

System: mice, P1798 lymphosarcoma sc, survival or tumor weight T/C
Assay: NCI In Vivo Anticancer Drug Screen. Data for tumor model P1798 Lymphosarcoma (subcutaneous) in unknown mice
Protocol: The antitumor activity of compounds was measured in mice bearing transplantable tumors. Survival or tumor size were measured and the results are expressed as the measurement made in the treated group (T) divided by the measurement made in the vehicle treated control group (C). The tumor model used in this assay is P1798 Lymphosarcoma (subcutaneous) in unknown mice

[1] = endpoint: mean tumor weight, dose: 25.0 mg/kg/injection, schedule: Q01DX010 (ip), vehicle: carboxymethylcellulose (CMC), higher = larger tumour
[2] = endpoint: mean tumor weight, dose: 62.5 mg/kg/injection, schedule: Q01DX010 (ip), vehicle: carboxymethylcellulose (CMC), higher = larger tumour
[3] = endpoint: mean tumor weight, dose: 125.0 mg/kg/injection, schedule: Q01DX010 (ip), vehicle: carboxymethylcellulose (CMC), higher = larger tumour
[4] = endpoint: mean tumor weight, dose: 250.0 mg/kg/injection, schedule: Q01DX010 (ip), vehicle: carboxymethylcellulose (CMC), higher = larger tumour
[5] = endpoint: mean tumor weight, dose: 500.0 mg/kg/injection, schedule: Q01DX010 (ip), vehicle: carboxymethylcellulose (CMC), higher = larger tumour
[6] = endpoint: mean tumor weight, dose: 1000.0 mg/kg/injection, schedule: Q01DX010 (ip), vehicle: carboxymethylcellulose (CMC), higher = larger tumour

O=P1(N(CCCl)CCCl)NCCCO1 (stereo not drawn)
T/C (endpoint: mean tumor weight, dose: 6.3 mg/kg/injection, schedule: Q01DX010 (ip), vehicle: saline, higher = larger tumour): 113 % of control and 107 % of control | T/C (endpoint: mean tumor weight, dose: 13.0 mg/kg/injection, schedule: Q01DX011 (ip), vehicle: saline, higher = larger tumour): 86 % of control | T/C (endpoint: mean tumor weight, dose: 26.5 mg/kg/injection, schedule: Q01DX011 (ip), vehicle: saline, higher = larger tumour): 121 % of control | T/C (endpoint: mean tumor weight, dose: 40.0 mg/kg/injection, schedule: Q01DX011 (ip), vehicle: saline, higher = larger tumour): 26 % of control | T/C (endpoint: median survival time, dose: 3.12 mg/kg/injection, schedule: Q01DX010 (ip), vehicle: saline, higher = longer survival): 80 % of control | T/C (endpoint: median survival time, dose: 6.25 mg/kg/injection, schedule: Q01DX010 (ip), vehicle: saline, higher = longer survival): 97 % of control | T/C (endpoint: median survival time, dose: 6.3 mg/kg/injection, schedule: Q07DX005 (ip), vehicle: saline, higher = longer survival): 99 % of control | T/C (endpoint: median survival time, dose: 12.5 mg/kg/injection, schedule: Q01DX001 (ip), vehicle: saline, higher = longer survival): 107 % of control | T/C (endpoint: median survival time, dose: 12.5 mg/kg/injection, schedule: Q01DX010 (ip), vehicle: saline, higher = longer survival): 96 % of control and 103 % of control (2×) | T/C (endpoint: median survival time, dose: 12.5 mg/kg/injection, schedule: Q07DX005 (ip), vehicle: saline, higher = longer survival): 106 % of control | T/C (endpoint: median survival time, dose: 25.0 mg/kg/injection, schedule: Q01DX001 (ip), vehicle: saline, higher = longer survival): 92 % of control (2×) and 101 % of control | T/C (endpoint: median survival time, dose: 25.0 mg/kg/injection, schedule: Q01DX010 (ip), vehicle: saline, higher = longer survival): 46 % of control and 98 % of control (2×) | T/C (endpoint: median survival time, dose: 25.0 mg/kg/injection, schedule: Q07DX005 (ip), vehicle: saline, higher = longer survival): 103 % of control | T/C (endpoint: median survival time, dose: 50.0 mg/kg/injection, schedule: Q01DX001 (ip), vehicle: saline, higher = longer survival): 97 % of control and 99 % of control (2×) | T/C (endpoint: median survival time, dose: 50.0 mg/kg/injection, schedule: Q01DX010 (ip), vehicle: saline, higher = longer survival): 29 % of control and 90 % of control (2×) | T/C (endpoint: median survival time, dose: 50.0 mg/kg/injection, schedule: Q07DX005 (ip), vehicle: saline, higher = longer survival): 110 % of control | T/C (endpoint: median survival time, dose: 100.0 mg/kg/injection, schedule: Q01DX001 (ip), vehicle: saline, higher = longer survival): 114 % of control and 100 % of control (2×) | T/C (endpoint: median survival time, dose: 100.0 mg/kg/injection, schedule: Q01DX010 (ip), vehicle: saline, higher = longer survival): 29 % of control | T/C (endpoint: median survival time, dose: 100.0 mg/kg/injection, schedule: Q07DX005 (ip), vehicle: saline, higher = longer survival): 95 % of control | T/C (endpoint: median survival time, dose: 200.0 mg/kg/injection, schedule: Q01DX001 (ip), vehicle: saline, higher = longer survival): 107 % of control | T/C (endpoint: median survival time, dose: 200.0 mg/kg/injection, schedule: Q01DX010 (ip), vehicle: saline, higher = longer survival): 25 % of control | T/C (endpoint: median survival time, dose: 400.0 mg/kg/injection, schedule: Q01DX001 (ip), vehicle: saline, higher = longer survival): 29 % of control

S=C(N=Nc1ccccc1)NNc1ccccc1
T/C (endpoint: mean tumor weight, dose: 37.5 mg/kg/injection, schedule: Q01DX010 (ip), vehicle: carboxymethylcellulose (CMC), higher = larger tumour): 64 % of control

Cc1cc(N(CCCl)CCCl)ccc1N=Nc1ccccc1C(=O)O
T/C (endpoint: mean tumor weight, dose: 3.75 mg/kg/injection, schedule: Q01DX010 (ip), vehicle: carboxymethylcellulose (CMC), higher = larger tumour): 40 % of control | T/C (endpoint: mean tumor weight, dose: 7.5 mg/kg/injection, schedule: Q01DX010 (ip), vehicle: carboxymethylcellulose (CMC), higher = larger tumour): 26 % of control

CCCCCCCCCCCCCCCCC(C(=O)O)C(O)(CC(=O)O)C(=O)O (stereo not drawn)
T/C (endpoint: mean tumor weight, dose: 12.5 mg/kg/injection, schedule: Q01DX010 (ip), vehicle: carboxymethylcellulose (CMC), higher = larger tumour): 84 % of control | T/C [1]: 87 % of control

NC(=O)N(CCCl)N=O
T/C (endpoint: mean tumor weight, dose: 1.0 mg/kg/injection, schedule: Q01DX010 (ip), vehicle: carboxymethylcellulose (CMC), higher = larger tumour): 104 % of control | T/C (endpoint: mean tumor weight, dose: 2.0 mg/kg/injection, schedule: Q01DX010 (ip), vehicle: carboxymethylcellulose (CMC), higher = larger tumour): 115 % of control | T/C (endpoint: mean tumor weight, dose: 4.0 mg/kg/injection, schedule: Q01DX010 (ip), vehicle: carboxymethylcellulose (CMC), higher = larger tumour): 116 % of control | T/C (endpoint: mean tumor weight, dose: 8.0 mg/kg/injection, schedule: Q01DX010 (ip), vehicle: carboxymethylcellulose (CMC), higher = larger tumour): 61 % of control

OCC1OC(n2cnc3c(Cl)ncnc32)C(O)C1O (stereo not drawn)
T/C [2]: 104 % of control | T/C [3]: 107 % of control | T/C [4]: 92 % of control | T/C [5]: 91 % of control and 95 % of control | T/C [6]: 79 % of control

CN(C)c1ccc(Nc2c3ccccc3nc3ccccc23)cc1
T/C (endpoint: mean tumor weight, dose: 3.15 mg/kg/injection, schedule: Q01DX010 (ip), vehicle: carboxymethylcellulose (CMC), higher = larger tumour): 84 % of control | T/C (endpoint: mean tumor weight, dose: 6.3 mg/kg/injection, schedule: Q01DX010 (ip), vehicle: carboxymethylcellulose (CMC), higher = larger tumour): 86 % of control | T/C [1]: 36 % of control | T/C (endpoint: mean tumor weight, dose: 50.0 mg/kg/injection, schedule: Q01DX010 (ip), vehicle: carboxymethylcellulose (CMC), higher = larger tumour): 10 % of control

O=CCC(O)C(O)C(O)CO (stereo not drawn)
T/C (endpoint: mean tumor weight, dose: 16.0 mg/kg/injection, schedule: Q01DX010 (ip), vehicle: carboxymethylcellulose (CMC), higher = larger tumour): 67 % of control | T/C (endpoint: mean tumor weight, dose: 31.2 mg/kg/injection, schedule: Q01DX010 (ip), vehicle: carboxymethylcellulose (CMC), higher = larger tumour): 74 % of control | T/C [2]: 70 % of control | T/C [3]: 36 % of control and 61 % of control | T/C [4]: 44 % of control | T/C [5]: 42 % of control | T/C [6]: 19 % of control

C[C@H](N)C(=O)N[C@@H]1[C@H]2C(=C(O)C[C@@H](O)[C@@H]2O)C(=O)O[C@@H]1C
T/C (endpoint: mean tumor weight, dose: 125.0 mg/kg/injection, schedule: Q01DX010 (ip), vehicle: saline, higher = larger tumour): 61 % of control | T/C (endpoint: mean tumor weight, dose: 250.0 mg/kg/injection, schedule: Q01DX010 (ip), vehicle: saline, higher = larger tumour): 84 % of control | T/C (endpoint: mean tumor weight, dose: 500.0 mg/kg/injection, schedule: Q01DX010 (ip), vehicle: saline, higher = larger tumour): 64 % of control

CCC(=O)O[C@H]1CC[C@H]2[C@@H]3CCC4=CC(=O)CC[C@]4(C)[C@H]3CC[C@]12C
T/C (endpoint: mean tumor weight, dose: 150.0 mg/kg/injection, schedule: Q01DX010 (sc), vehicle: steriod suspending solution, higher = larger tumour): 108 % of control | T/C (endpoint: mean tumor weight, dose: 300.0 mg/kg/injection, schedule: Q01DX010 (sc), vehicle: steriod suspending solution, higher = larger tumour): 116 % of control | T/C (endpoint: mean tumor weight, dose: 600.0 mg/kg/injection, schedule: Q01DX010 (sc), vehicle: steriod suspending solution, higher = larger tumour): 104 % of control

CS(=O)(=O)OCCCCOS(C)(=O)=O
T/C (endpoint: mean tumor weight, dose: 2.0 mg/kg/injection, schedule: Q01DX010 (ip), vehicle: methylcellulose (MC), higher = larger tumour): 74 % of control and 85 % of control | T/C (endpoint: mean tumor weight, dose: 4.0 mg/kg/injection, schedule: Q01DX010 (ip), vehicle: methylcellulose (MC), higher = larger tumour): 95 % of control | T/C (endpoint: mean tumor weight, dose: 8.0 mg/kg/injection, schedule: Q01DX010 (ip), vehicle: methylcellulose (MC), higher = larger tumour): 117 % of control and 92 % of control | T/C (endpoint: mean tumor weight, dose: 16.0 mg/kg/injection, schedule: Q01DX010 (ip), vehicle: methylcellulose (MC), higher = larger tumour): 50 % of control

C=CC(CN1CC1)OC(C)=O (stereo not drawn)
T/C (endpoint: mean tumor weight, dose: 4.0 mg/kg/injection, schedule: Q01DX010 (ip), vehicle: saline, higher = larger tumour): 71 % of control | T/C (endpoint: mean tumor weight, dose: 6.0 mg/kg/injection, schedule: Q01DX010 (ip), vehicle: saline, higher = larger tumour): 64 % of control | T/C (endpoint: mean tumor weight, dose: 8.0 mg/kg/injection, schedule: Q01DX010 (ip), vehicle: saline, higher = larger tumour): 42 % of control

CC(=O)[C@H]1CC[C@H]2[C@@H]3C[C@H](C)C4=CC(=O)CC[C@]4(C)[C@H]3C(=O)C[C@]12C
T/C (endpoint: mean tumor weight, dose: 12.5 mg/kg/injection, schedule: Q01DX010 (sc), vehicle: carboxymethylcellulose (CMC), higher = larger tumour): 101 % of control | T/C (endpoint: mean tumor weight, dose: 25.0 mg/kg/injection, schedule: Q01DX010 (sc), vehicle: carboxymethylcellulose (CMC), higher = larger tumour): 100 % of control | T/C (endpoint: mean tumor weight, dose: 50.0 mg/kg/injection, schedule: Q01DX010 (sc), vehicle: carboxymethylcellulose (CMC), higher = larger tumour): 115 % of control | T/C (endpoint: mean tumor weight, dose: 100.0 mg/kg/injection, schedule: Q01DX010 (sc), vehicle: carboxymethylcellulose (CMC), higher = larger tumour): 112 % of control | T/C (endpoint: mean tumor weight, dose: 200.0 mg/kg/injection, schedule: Q01DX010 (sc), vehicle: carboxymethylcellulose (CMC), higher = larger tumour): 117 % of control | T/C (endpoint: mean tumor weight, dose: 400.0 mg/kg/injection, schedule: Q01DX010 (sc), vehicle: carboxymethylcellulose (CMC), higher = larger tumour): 108 % of control

C[C@@H]1C[C@H]2CC[C@H](O2)[C@H](C)C(=O)O[C@@H](C)C[C@@H]2CC[C@@H](O2)[C@@H](C)C(=O)O[C@H](C)C[C@H]2CC[C@H](O2)[C@H](C)C(=O)O[C@@H](C)C[C@@H]2CC[C@@H](O2)[C@@H](C)C(=O)O1
T/C (endpoint: mean tumor weight, dose: 45.0 mg/kg/injection, schedule: Q01DX011 (ip), vehicle: other, higher = larger tumour): 93 % of control | T/C (endpoint: mean tumor weight, dose: 90.0 mg/kg/injection, schedule: Q01DX011 (ip), vehicle: other, higher = larger tumour): 89 % of control | T/C (endpoint: mean tumor weight, dose: 180.0 mg/kg/injection, schedule: Q01DX011 (ip), vehicle: other, higher = larger tumour): 83 % of control | T/C (endpoint: mean tumor weight, dose: 360.0 mg/kg/injection, schedule: Q01DX011 (ip), vehicle: other, higher = larger tumour): 61 % of control

S=P(N1CC1)(N1CC1)N1CC1
T/C (endpoint: mean tumor weight, dose: 0.63 mg/kg/injection, schedule: Q01DX010 (ip), vehicle: saline, higher = larger tumour): 95 % of control | T/C (endpoint: mean tumor weight, dose: 1.25 mg/kg/injection, schedule: Q01DX010 (ip), vehicle: saline, higher = larger tumour): 64 % of control | T/C (endpoint: mean tumor weight, dose: 2.5 mg/kg/injection, schedule: Q01DX010 (ip), vehicle: saline, higher = larger tumour): 24 % of control | T/C (endpoint: median survival time, dose: 0.75 mg/kg/injection, schedule: Q01DX010 (sc), vehicle: water, higher = longer survival): 97 % of control | T/C (endpoint: median survival time, dose: 1.5 mg/kg/injection, schedule: Q01DX010 (sc), vehicle: water, higher = longer survival): 105 % of control | T/C (endpoint: median survival time, dose: 3.0 mg/kg/injection, schedule: Q01DX010 (sc), vehicle: water, higher = longer survival): 103 % of control | T/C (endpoint: median survival time, dose: 6.0 mg/kg/injection, schedule: Q01DX010 (sc), vehicle: water, higher = longer survival): 47 % of control | T/C (endpoint: median survival time, dose: 12.0 mg/kg/injection, schedule: Q01DX010 (sc), vehicle: water, higher = longer survival): 27 % of control
